Assay [1] deals with keratinocytes (HaCat line). The assay can be described thus: Proliferation of keratinocytes (HaCat line) in culture medium deficient in growth factors; Cyquant, Nile red and XTT probes. The assay is classed as cell-based. The protocol: The keratinocytes (HaCat line) are cultured under two conditions: whole defined culture medium (standard condition) and culture medium deficient in growth factors. This deficient medium gives rise to a controlled delay in cell proliferation. Under these conditions, it is then possible to measure the effects of compounds capable of compensating for the deficiency in growth factors of the culture medium and thus of relaunching the cell multiplication and/or of stimulating cell metabolism.
The keratinocyte proliferation is measured by means of three markers on the same cell population: the level of DNA, which is proportional to the number of cells (Cyquant probe), the level of constituent polar lipids of cell membranes (Nile red probe) and the mitochondrial respiration, which reflects the general cell metabolism (XTT probe).

In assay [2] the test system is dermal fibroblasts of the reconstructed skin. The assay can be described thus: Proliferation of dermal fibroblasts in whole reconstructed skin (propidium iodide nuclei count on frozen sections). As to conditions: 5 mM, 48 hours of treatment, reconstructed skin versus control skin. The assay is classed as cell-based, human. The text has this:
Rhamnose was studied on a model of whole reconstructed skin in order to measure its anti-ageing efficacy on the dermal compartment.
(§1) Briefly, the model of reconstructed skin used is that described by Bell et al. (Bell E. et al., The reconstitution of living skin, J. Invest. Dermatol., 1983, July; 81): it includes a dermal equivalent on which is reconstructed a multistratified epidermis; the dermal equivalent is manufactured from acid-soluble collagen, culture medium containing serum and normal adult human fibroblasts. After 5 days of shrinkage, this equivalent is inoculated with keratinocytes and then cultured for 6 days in immersion and for 7 days in emersion in order to obtain a multistratified and differentiated epidermis having a horny layer.
The reconstructed skin is treated with 5 mM rhamnose for 2 days and 5 days in the culture medium; after the treatment, the reconstructed skins are included in Tissue Tek in order to produce frozen sections 7 μm thick with a cryostat. […] Three frozen sections are prepared at random on each reconstructed skin; on each section, two microscopic fields (25× objective lens) are analysed by fluorescence microscopy and photographed. The dermal fibroblasts are thus counted for each reconstructed skin on six images in total representing the six microscopic fields considered. […]

In another assay the test system is type I procollagen. The assay can be described thus: Synthesis of procollagen 1 in the dermis of reconstructed skin (indirect immunofluorescence). It is filed as cell-based, human. As to conditions: for procollagen 1 synthesis: reconstructed skin.
Text: as §1
Conventional detection via indirect immunofluorescence of type I procollagen in the dermis of the reconstructed skin was also performed on other series of frozen sections (anti-procoll 1 antibody (MAB 1912 Millipore)+FTIC-coupled conjugate (112-095-068 Jackson Immunoresearch)). In order to obtain bearings within the cutaneous architecture during the microscopic examination of the sections, the cell nuclei of the keratinocytes and fibroblasts are localized by staining them with propidium iodide, as described above. Three frozen sections are prepared at random on each reconstructed skin and on each section, and two microscopic fields (25× objective lens) are analysed by fluorescence microscopy and photographed. The levels of fluorescence proportional to the amount of type I procollagen are compared between the control skin and the skin treated with rhamnose.

The mark [3] stands for this setting: 1 mM, medium depleted in growth factors, versus untreated control.

Take `C[C@H](O)[C@H](O)[C@@H](O)[C@@H](O)C=O` [rhamnose]: the “efficacy on keratinocyte proliferation markers” value in assay [1] (500 μM, medium depleted in growth factors) is listed as “already show efficacy”. In assay [1] (setting [3]), the “level of DNA (Cyquant)” value was “significantly increased”, the “level of polar lipids (Nile red signal)” value was “significantly increased” and the “mitochondrial respiration (XTT signal)” value was “significantly increased”. The keratinocyte proliferation result in assay [1] (HaCat keratinocytes cultured in medium depleted in growth factors, versus untreated control) is on record as “activate keratinocyte proliferation”. In assay [2], the “growth of the dermal fibroblasts” value was “induces stimulation of growth”. Further, the “green fluorescence proportional to the amount of type I procollagen” value in the assay with type I procollagen (1 mM for 120 hours, reconstructed skin versus control skin) was “marked increase in green fluorescence”. Further, the “procollagen 1 synthesis” value with type I procollagen (1 mM) was “stimulation of procollagen 1 synthesis”. In addition, the “procollagen 1 synthesis” value in the assay with type I procollagen (5 mM) is on record as “stimulation of procollagen 1 synthesis”.

The values are drawn from patent publication US20100190727A1, “USE OF MONOSACCHARIDES AND COMPOSITION THEREFOR” (L'OREAL, priority 2008, published 2010).
